# Measurements taken from patent publication US20090042964A1, “AMINO-5-[SUBSTITUTED-4-(DIFLUOROMETHOXY)PHENYL]-5-PHENYLIMIDAZOLONE COMPOUNDS AS BETA-SECRETASE INHIBITORS” (Wyeth, priority 2007, published 2009).
# Target: human BACE1 (Homo sapiens, UniProt P56817)
# Assay: Fluorescent kinetic assay, evaluation of BACE1 binding affinity of test compounds
# Format: biochemical
# Conditions: 10 nM human BACE1, 25 μM substrate WABC-6, pH 4.5, room temperature; read-out: BACE1 IC50
# Outline: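 Kinetic fluorescence assay: enzyme added last to inhibitor and substrate mix, reading started immediately; substrate at 100 μM working dilution (25 μL in 100 μL total). Buffer 66.7 mM Na-acetate pH 4.5 with 0.0667% CHAPS for inhibitor and enzyme dilutions; enzyme stock quantified at 280 nm.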
# human BACE1, sequence (P56817 46-501): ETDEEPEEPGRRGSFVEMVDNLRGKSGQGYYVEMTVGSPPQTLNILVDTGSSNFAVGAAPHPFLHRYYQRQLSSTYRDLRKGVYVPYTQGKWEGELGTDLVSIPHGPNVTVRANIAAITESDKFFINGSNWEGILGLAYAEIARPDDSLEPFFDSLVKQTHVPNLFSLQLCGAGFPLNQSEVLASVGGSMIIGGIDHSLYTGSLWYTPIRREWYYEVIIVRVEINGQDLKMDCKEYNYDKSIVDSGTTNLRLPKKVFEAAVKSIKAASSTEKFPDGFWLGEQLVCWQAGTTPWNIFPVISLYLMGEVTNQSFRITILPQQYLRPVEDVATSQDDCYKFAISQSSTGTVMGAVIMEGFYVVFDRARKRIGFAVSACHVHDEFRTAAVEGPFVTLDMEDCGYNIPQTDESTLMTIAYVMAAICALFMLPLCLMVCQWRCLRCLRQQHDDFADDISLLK
row,IC50,Compound
1,< 100 nM,"CN1C(=O)C(c2cccc(Br)c2)(c2ccc(OC(F)F)c(C3CC3)c2)N=C1N (stereo not drawn) [Example 164, 2-Amino-5-(3-bromo-phenyl)-5-(3-cyclopropyl-4-difluoromethoxy-phenyl)-3-methyl-3,5-dihydro-imidazol-4-one]"
2,< 100 nM,"CN1C(=O)C(c2cccc(C#CCF)c2)(c2ccc(OC(F)F)c(C3CC3)c2)N=C1N (stereo not drawn) [Example 209, 2-amino-5-[3-cyclopropyl-4-(difluoromethoxy)phenyl]-5-[3-(3-fluoroprop-1-yn-1-yl)phenyl]-3-methyl-3,5-dihydro-4H-imidazol-4-one]"
3,< 100 nM,"CN1C(=O)C(c2ccc(F)c(C#CCF)c2)(c2ccc(OC(F)F)c(C3CC3)c2)N=C1N (stereo not drawn) [Example 210, 2-amino-5-[3-cyclopropyl-4-(difluoromethoxy)phenyl]-5-[4-fluoro-3-(3-fluoroprop-1-yn-1-yl)phenyl]-3-methyl-3,5-dihydro-4H-imidazol-4-one]"
4,< 100 nM,"CN1C(=O)C(c2cccc(C#CCCF)c2)(c2ccc(OC(F)F)c(C3CC3)c2)N=C1N (stereo not drawn) [Example 211, 2-amino-5-[3-cyclopropyl-4-(difluoromethoxy)phenyl]-5-[3-(4-fluorobut-1-yn-1-yl)phenyl]-3-methyl-3,5-dihydro-4H-imidazol-4-one]"
5,> 1000 nM,"CN1C(=O)[C@@](c2cccc(C#CCF)c2)(c2ccc(OC(F)F)c(C3CC3)c2)N=C1N [Example 212, (5R)-2-amino-5-[3-cyclopropyl-4-(difluoromethoxy)phenyl]-5-[3-(3-fluoroprop-1-yn-1-yl)phenyl]-3-methyl-3,5-dihydro-4H-imidazol-4-one]"
6,< 100 nM,"CN1C(=O)[C@](c2cccc(C#CCF)c2)(c2ccc(OC(F)F)c(C3CC3)c2)N=C1N [Example 213, (5S)-2-amino-5-[3-cyclopropyl-4-(difluoromethoxy)phenyl]-5-[3-(3-fluoroprop-1-yn-1-yl)phenyl]-3-methyl-3,5-dihydro-4H-imidazol-4-one]"
7,> 1000 nM,"CN1C(=O)[C@@](c2ccc(F)c(C#CCCF)c2)(c2ccc(OC(F)F)c(C3CC3)c2)N=C1N [Example 214, (5S)-2-amino-5-[3-cyclopropyl-4-(difluoromethoxy)phenyl]-5-[4-fluoro-3-(4-fluorobut-1-yn-1-yl)phenyl]-3-methyl-3,5-dihydro-4H-imidazol-4-one]"
8,< 100 nM,"CN1C(=O)[C@](c2ccc(F)c(C#CCCF)c2)(c2ccc(OC(F)F)c(C3CC3)c2)N=C1N [Example 215, (5R)-2-amino-5-[3-cyclopropyl-4-(difluoromethoxy)phenyl]-5-[4-fluoro-3-(4-fluorobut-1-yn-1-yl)phenyl]-3-methyl-3,5-dihydro-4H-imidazol-4-one]"

# Test system: not given
# Assay: not given
# Conditions: not given
row,melting point,Compound
1,85 to 87 °C,"CN1C(=O)C(c2cccc(Br)c2)(c2ccc(OC(F)F)c(C3CC3)c2)N=C1N (stereo not drawn) [Example 164, 2-Amino-5-(3-bromo-phenyl)-5-(3-cyclopropyl-4-difluoromethoxy-phenyl)-3-methyl-3,5-dihydro-imidazol-4-one]"
